# Laboratory results: ChEMBL document CHEMBL4219129, “Design, synthesis and biological evaluation of spiropyrimidinetriones oxazolidinone derivatives as antibacterial agents” (2018)
# Tests used:
# Format in all cases: functional
# Enterococcus faecium [1] = experiment: Antibacterial activity against vancomycin-resistant Enterococcus faecium R1
# [2] = test system: Staphylococcus epidermidis; experiment: Antibacterial activity against methicillin-resistant Staphylococcus epidermidis ATCC 35984
# Enterococcus faecium [3] = experiment: Antibacterial activity against vancomycin-resistant Enterococcus faecium 134
# Staphylococcus aureus [4] = experiment: Antibacterial activity against linezolid-resistant Staphylococcus aureus O-128
# Enterococcus faecium [5] = experiment: Antibacterial activity against vancomycin-resistant Enterococcus faecium 03080 DS
# Enterococcus faecium [6] = experiment: Antibacterial activity against Enterococcus faecium NLNZ 572
# Staphylococcus aureus [7] = experiment: Antibacterial activity against PVL positive Staphylococcus aureus
# Enterococcus faecium [8] = experiment: Antibacterial activity against Enterococcus faecium ATCC 19434
# Staphylococcus aureus [9] = experiment: Antibacterial activity against methicillin-resistant Staphylococcus aureus 562
# Enterococcus faecalis [10] = experiment: Antibacterial activity against linezolid-resistant Enterococcus faecalis ATCC 29212
# Enterococcus faecalis [11] = experiment: Antibacterial activity against Enterococcus faecalis ATCC 51299
# Enterococcus faecium [12] = experiment: Antibacterial activity against linezolid-resistant Enterococcus faecium 303
# Enterococcus faecium [13] = experiment: Antibacterial activity against Enterococcus faecium 45/146
# Enterococcus faecalis [14] = experiment: Antibacterial activity against Enterococcus faecalis ATCC 19434
# Staphylococcus aureus [15] = experiment: Antibacterial activity against Staphylococcus aureus FDA 209P
# Enterococcus faecium [16] = experiment: Antibacterial activity against Enterococcus faecium ATCC 35667
# Staphylococcus aureus [17] = experiment: Antibacterial activity against […] Staphylococcus aureus ATCC 13709 SMITH
# [18] = test system: Staphylococcus epidermidis; experiment: Antibacterial activity against linezolid-resistant Staphylococcus epidermidis 1117174
# Staphylococcus aureus [19] = experiment: Antibacterial activity against methicillin-resistant Staphylococcus aureus DB-00026
# Staphylococcus aureus [20] = experiment: Antibacterial activity against Staphylococcus aureus ATCC 29213
# Enterococcus faecium [21] = experiment: Antibacterial activity against vancomycin-resistant Enterococcus faecium 31/132
# Enterococcus faecium [22] = experiment: Antibacterial activity against Enterococcus faecium 575
# Staphylococcus aureus [23] = experiment: Antibacterial activity against methicillin-resistant Staphylococcus aureus USA300 BAA-1556
# Staphylococcus aureus [24] = experiment: Antibacterial activity against Staphylococcus aureus Mu50 ATCC 700699
# Enterococcus faecalis [25] = experiment: Antibacterial activity against Enterococcus faecalis ATCC 29212
# Staphylococcus aureus [26] = experiment: Antibacterial activity against methicillin-resistant Staphylococcus aureus 1201984
# [27] = test system: Staphylococcus epidermidis; experiment: Antibacterial activity against Staphylococcus epidermidis ATCC 12228
# [28] = test system: Staphylococcus epidermidis; experiment: Antibacterial activity against linezolid-resistant Staphylococcus epidermidis 1089191
# Enterococcus faecium [29] = experiment: Antibacterial activity against vancomycin-resistant Enterococcus faecium 32/133
# Escherichia coli [30] = experiment: Antibacterial activity against Escherichia coli MG1655; details: K-12 substr. MG1655
# Escherichia coli [31] = experiment: Antibacterial activity against TolC-deficient Escherichia coli
# Enterococcus faecium [32] = experiment: Antibacterial activity against vancomycin-resistant Enterococcus faecium 6A
structure (smiles),measurement,setting,value
CC(=O)NC[C@H]1CN(c2ccc(-c3ccc4c(c3)CC3(C(=O)NC(=O)NC3=O)C3CCCN43)c(F)c2)C(=O)O1 (some centres not stated),MIC,Enterococcus faecium [1],2 µg/mL
same,MIC,[2],≤ 1 µg/mL
same,MIC,Enterococcus faecium [3],4 µg/mL
same,MIC,Staphylococcus aureus [4],16 µg/mL
same,MIC,Enterococcus faecium [5],2 µg/mL
same,MIC,Enterococcus faecium [6],4 µg/mL
same,MIC,Staphylococcus aureus [7],2 µg/mL
same,MIC,Enterococcus faecium [8],2 µg/mL
same,MIC,Staphylococcus aureus [9],2 µg/mL
same,MIC,Enterococcus faecalis [10],4 µg/mL
same,MIC,Enterococcus faecalis [11],2 µg/mL
same,MIC,Enterococcus faecium [12],16 µg/mL
same,MIC,Enterococcus faecium [13],2 µg/mL
same,MIC,Enterococcus faecalis [14],2 µg/mL
same,MIC,Staphylococcus aureus [15],4 µg/mL
same,MIC,Enterococcus faecium [16],1 µg/mL
same,MIC,Staphylococcus aureus [17],16 µg/mL
same,MIC,[18],32 µg/mL
same,MIC,Staphylococcus aureus [19],2 µg/mL
same,MIC,Staphylococcus aureus [20],2 µg/mL
same,MIC,Enterococcus faecium [21],2 to 4 µg/mL
same,MIC,Enterococcus faecium [22],2 µg/mL
same,MIC,Staphylococcus aureus [23],4 µg/mL
same,MIC,Staphylococcus aureus [24],≤ 1 µg/mL
same,MIC,Enterococcus faecalis [25],2 µg/mL
same,MIC,Staphylococcus aureus [26],4 µg/mL
same,MIC,[27],2 µg/mL
same,MIC,[28],> 32 µg/mL
same,MIC,Enterococcus faecium [29],4 µg/mL
same,MIC,Escherichia coli [30],> 32 µg/mL
same,MIC,Escherichia coli [31],2 µg/mL
same,MIC,Enterococcus faecium [32],1 µg/mL
